From a melting point compilation (Tetko et al.; mined from patent text by program, amines drawn as free bases though some values may be those of a salt)

Compound `CCOC(=O)C(O)Cc1ccc(OCCNC(=O)c2ccc(-c3ccccn3)cc2)cc1` (stereo unspecified) has a melting point of 97 to 99 °C.
`COc1cc(Cl)cc(CC#N)c1Cl` showed a melting point of 53 to 57 °C.
`Nc1ncc(-c2noc(-c3cnn4c(C(F)(F)F)cc(-c5ccc(Cl)cc5)nc34)n2)cn1` showed a melting point of 268 °C.
Work on `COc1ccc(N2CCOCC2)c2sc(-c3nc4ccc(N5CCCC5)nc4[nH]3)nc12` yielded a melting point of 264 to 268 °C.
In the case of `CNc1cc(NS(=O)(=O)c2ccc(N)cc2)nc(N(C)C)n1`, the melting point was 253 to 254 °C.
In the case of `O=C1NC[C@H]2CCC[C@H]2O1` (relative stereo), the melting point was 56 to 58 °C.
In the case of `CCN(CC)CCc1nc(Cn2cnc3c2c(=O)n(C)c(=O)n3C)no1`, the melting point was 69 to 70 °C.
In the case of `O=CCC[C@@H]1[C@@H](OCc2ccc(-c3ccccc3)cc2)CO[C@@H]1c1cccnc1`, the melting point was 204 to 205 °C.
Compound `CC(C)(C)c1ccc(C(=O)Nc2cn3cc(-n4cncn4)ccc3n2)cc1` has a melting point of 274 to 276 °C.
For `O=[N+]([O-])c1ccc(C#CCCN2CC=C(c3ccccc3)CC2)nc1`, the melting point was 133 to 134 °C.
In the case of `O=P(O)(c1ccccc1)c1ccc(S(=O)(=O)c2ccccc2)cc1`, the melting point was 220 to 224 °C.
`O=c1ncc(Cl)cn1C(SCc1ccccc1)c1ccccc1` (stereo unspecified) showed a melting point of 118 °C.
In the case of `CN1C(=O)CC[C@]2(C)c3ccc(-c4cnc5ccccc5c4)cc3CC[C@@H]12`, the melting point was 180 to 185 °C.
`COC(=O)C1Cc2c(cccc2C(C)C)C(=O)CS1` (stereo unspecified) gave a melting point of 116 to 117 °C.
In the case of `Cc1cc(Oc2ccc(Cl)cc2Cl)ccc1C#N`, the melting point was 52 to 55 °C.
With `O=C(Nc1ccc(-c2ncno2)cc1)Oc1ccc([N+](=O)[O-])cc1` the melting point was 210 to 212 °C.
Compound `CC(Cc1c[nH]c2ccccc12)(NC(=O)OC1C2CC3CC(C2)CC1C3)C(=O)NCC(NC(=O)CSc1ncc[nH]1)c1ccccc1` (stereo unspecified) has a melting point of 112 to 122 °C.
Compound `Nc1ccc2cccc(Oc3cc(-c4ccc(C(F)(F)F)cc4N)ncn3)c2n1` has a melting point of 233 to 234 °C.
`COc1ccc(-c2cc3nccnc3[nH]2)cc1OCC(=O)O` showed a melting point of 330 to 332 °C.
In the case of `CCCCCc1cc2c(nc(O)n2CC2CCNCC2)c(N)n1`, the melting point was 246 to 249 °C.
`CN1C(=O)[C@H](NC(=O)CCc2ccc(Cl)cc2Cl)N=C(c2ccccc2)c2cc(NS(C)(=O)=O)ccc21` gave a melting point of 130 to 148 °C.
Work on `Cc1ccc(Cn2c(=O)[nH]c3cc(Cl)cc(Cl)c3c2=O)cc1` yielded a melting point of 210 to 218 °C.
`Cc1c(-c2cccnc2)n(CCCCCC(N)=O)c2ccc(Cl)cc12` showed a melting point of 137 to 140 °C.
For `Cc1cc(-c2cccc(NC(=O)N[C@@H]3c4cc(C#N)ccc4OC(C)(C)[C@H]3O)c2)n(C)n1`, the melting point was 142 to 152 °C.
For `CC1(C)CC(=C(c2ccccc2)c2ccc(OCCO)cc2)CC(C)(C)C1`, the melting point was 131 to 132 °C.
`COC(=O)Cc1cc(=O)[nH]c2cc(Br)ccc12` gave a melting point of 208 to 210 °C.
Work on `OCC(O)COc1ccc(-c2nc(-c3cccs3)c[nH]2)cc1` (stereo unspecified) yielded a melting point of 197 to 200 °C.
Work on `CC(C)(C)CCN[C@@H](CC(=O)O)C(=O)O` yielded a melting point of 184 to 186 °C.
Compound `O=C1NC(=O)C2(c3cc(Oc4ccc(O)cc4)c(Cl)cc3F)CCCCC12` (stereo unspecified) has a melting point of 117 to 120 °C.
With `CN1CCN(c2cccc3c2C[C@H](NC(=O)c2ccccc2)CC3)CC1` the melting point was 195 to 196 °C.
For `ClCCN1c2cc3c(cc2C(c2cccs2)=NCC1CCl)OCCO3` (stereo unspecified), the melting point was 184 to 187 °C.
Compound `N#CCc1ccc(CCOc2ccc([N+](=O)[O-])cc2)nc1` has a melting point of 94 to 95 °C.
Compound `COc1cccc(C=NNc2ncc(COc3cccc(C(=O)Nc4ccc(C(C)C)c(C)c4)c3)c3ccccc23)c1` has a melting point of 125 to 129 °C.
Work on `O=C(NC1CN2CCC1CC2)c1ccccc1Cc1ccccc1` (racemic) yielded a melting point of 187 to 188 °C.
With `CCCOc1ccc(S(=O)(=O)Nc2ccc3[nH]ncc3c2)cc1-c1nc2cc(N)c([N+](=O)[O-])cc2c(=O)[nH]1` the melting point was 261 to 263 °C.
`Cc1cccc(C)c1CNc1cc(Br)cc2c1nc(C)n2C` gave a melting point of 185 °C.
For `COC(=O)C(=CNC1CC1)C(=O)C=Cc1ccc2c(c1)OCO2`, the melting point was 158 to 160 °C.
Compound `Cc1cc(Nc2cncc(Nc3ccc(Cl)c(C(=O)N(C)C)c3)n2)n[nH]1` has a melting point of 213 to 215 °C.
For `CCCCc1c(C(=O)O)sc2ccc([N+](=O)[O-])cc12`, the melting point was 238 to 240 °C.
Compound `C#CCOc1cc(-c2nc3n(c2Cl)CCCC3)c(F)cc1Cl` has a melting point of 142 to 145 °C.
In the case of `OCCOc1ccc(C2CCc3ccccc3O2)cc1` (stereo unspecified), the melting point was 84 to 85 °C.
For `Cc1ccc(-c2cc(NCCNc3cc(-c4cccs4)[nH]n3)n[nH]2)cc1`, the melting point was 148 °C.
With `O=C(O)c1cc(-n2c(-c3ccccc3)cc3c2CCCC3)cc(Br)c1O` the melting point was 209 to 210 °C.
`COc1cc(Nc2c(C#N)cnc3cc(Cl)c([N+](=O)[O-])cc23)c(C)cc1Cl` showed a melting point of 217 to 219 °C.
Work on `OCCCc1conc1-c1ccc(Cl)c(F)c1` yielded a melting point of 54 to 55 °C.
Compound `COc1ccc(C(=O)NCCCCCCCNC(=O)c2ccc(OC)c(Cl)c2)cc1Cl` has a melting point of 132 to 133 °C.
With `O=C(NCCSc1cccc2nccn12)c1ccccc1O` the melting point was 156 to 157 °C.
For `CCN(CC)CC/C=C/c1cc2ncc(C#N)c(Nc3ccc(Sc4nccn4C)c(Cl)c3)c2cc1OC`, the melting point was 194 to 202 °C.
Work on `CCCCCCCCCCCCCCCCCCSC(=O)Nc1ccc(NC(=O)NS(=O)(=O)c2ccc3ccccc3c2)cc1` yielded a melting point of 193 °C.
With `ClC1=Nc2cc(Cl)ccc2Oc2cscc21` the melting point was 180 to 182 °C.
Compound `CN(CCc1ccncc1)S(=O)(=O)C1CCCCC1` has a melting point of 94 to 96 °C.
With `CC(C)(C)NC(=O)c1ncccc1CCc1cccc(Cl)c1` the melting point was 45 to 46 °C.
In the case of `O=C(c1ccccc1)c1nc(Br)c(Br)[nH]1`, the melting point was 215 to 217 °C.
In the case of `CN1CCN(C2=Nc3ccncc3Oc3ccccc32)CC1`, the melting point was 124 to 125 °C.
For `CC(Cc1c[nH]c2ccccc12)(NC(=O)OC1CCCCC1Cl)C(=O)NCCc1ccccc1` (stereo unspecified), the melting point was 69 to 78 °C.
With `COc1ccc2c(c1)C=C(c1ccc3c(c1)NC(=O)CO3)C(c1ccccc1)O2` (stereo unspecified) the melting point was 200 °C.
`COc1ccc(C2=CCCS(=O)C2)cc1OC1CCCC1` (stereo unspecified) showed a melting point of 92 to 93 °C.
`COC(=O)C=Cc1ccc(OCCc2nc(-c3ccccc3)oc2C)cc1` gave a melting point of 114 to 115 °C.
For `CC(=O)C1=C(C)N=C(c2ccccc2)NC1c1cccc([N+](=O)[O-])c1` (stereo unspecified), the melting point was 154 to 155 °C.
In the case of `C[Si](C)(C)c1ccc2cc3c(cc2c1)C(=O)c1ccccc1C3=O`, the melting point was 168 to 170 °C.
In the case of `COC(=O)c1ccc(Cc2c(Cl)n(C)c3ccc(CC(C)NC(=O)N(C)C)cc23)c(OC)c1` (stereo unspecified), the melting point was 148 °C.
With `CS(=O)(=O)c1ccc(-c2sc(-c3ccccc3Cl)nc2-c2ccc(Br)cc2)cc1` the melting point was 168 to 184 °C.
Compound `CC(C)(C)OC(=O)CN1C(=O)C=C(CC(NC(=O)OC(C)(C)C)C(=O)OC(C)(C)C)C1=O` (stereo unspecified) has a melting point of 88.5 to 89.5 °C.
Compound `CCOC(=O)c1cnn(-c2ccccn2)c1S(N)(=O)=O` has a melting point of 73 to 76 °C.
Compound `O=C(c1ccccc1)N1CCc2cc(CCl)ccc21` has a melting point of 108 to 110 °C.
In the case of `Cc1onc(-c2ccc(Cl)c(Cl)c2)c1-c1ccc(S(N)(=O)=O)cc1`, the melting point was 66 to 71 °C.
With `O=C1CCCc2cc(OCCOc3ccccc3)ccc21` the melting point was 109 to 113 °C.
Work on `CN(C)c1nc(NCc2ccc(NC(=O)c3ccc(F)cc3)cc2)c2ccc(CO)cc2n1` yielded a melting point of 158 °C.
Compound `O=C1c2ccc(F)cc2CC1c1ccc(F)cc1` (stereo unspecified) has a melting point of 72 to 74 °C.
Compound `Oc1ccc(Cn2cc[nH]c2=S)cc1F` has a melting point of 161 to 165 °C.
`CNS(=O)(=O)c1cccc(OC)c1C#N` showed a melting point of 121 to 128 °C.
Work on `CCn1cc([N+](=O)[O-])cn1` yielded a melting point of 54 to 55 °C.
`CC1(C)CCC(C)(C)c2cc3cc(-c4cc(C(=O)O)cs4)ccc3cc21` showed a melting point of 223 to 225 °C.
Work on `CCn1ccc(Nc2cc(Cl)nn(C)c2=O)n1` yielded a melting point of 173 to 175 °C.
Compound `C=Cc1ccc(C#N)cn1` has a melting point of 29 to 30 °C.
In the case of `CCOC(=O)c1nc(NC)sc1-c1nc2ccccn2c1C`, the melting point was 183 to 185 °C.
`CCCCCCc1ccc(CCCCC(NC(C)=O)(C(=O)OCC)C(=O)OCC)cc1` gave a melting point of 57 to 58 °C.
Compound `CCOc1cc2c(c3c1OC(C)(C)C3)C(c1cccc(C(=O)NC)c1)=NC(C)(C)C2=O` has a melting point of 233 to 235 °C.
For `Oc1ccc(CCNc2ncnc3scnc23)c(F)c1`, the melting point was 193 °C.
With `C[Si](C)(C)C#Cc1ccc(I)cc1` the melting point was 57 to 59 °C.
`CC(=O)NC[C@H]1CN(c2ccc(C3=CCOCC3)cc2)C(=O)O1` showed a melting point of 182 to 184 °C.
In the case of `NC(=O)CCCCCN1CCN(c2csc3cc(F)ccc23)CC1`, the melting point was 141 to 142 °C.
With `CN1c2ccccc2N=C(N2CCN(CCO)CC2)c2cscc21` the melting point was 192 to 193 °C.
For `COc1cc(NC(=N)Nc2ccc3c4c(cccc24)CC3)cc2ccccc12`, the melting point was 191 to 192 °C.
`CCCCCCCc1cnc(-c2ccc(CCC(=O)OCC(F)(F)C(F)F)cc2)nc1` showed a melting point of 42 °C.
With `CCCCCCOc1nc(N)nc2c1ncn2C1C=CC(CO)C1` (stereo unspecified) the melting point was 90 to 92 °C.
Compound `COCCCn1nnnc1-c1cc(-c2cccc(C)c2)c(O)cc1O` has a melting point of 137 to 140 °C.
With `O=C(O)CCCCCCCCCCn1nnnc1S` the melting point was 95 to 98 °C.
`CC1Cc2ccc(Cl)cc2C(c2ccc([N+](=O)[O-])cc2)=NN1` (stereo unspecified) gave a melting point of 132 to 135 °C.
For `COC(=O)C1=C(C)NC2=C(C(=O)CN(Cc3ccccc3)C2)C1c1ccccc1C` (stereo unspecified), the melting point was 201 to 204 °C.
Compound `O=c1oc(-c2ccccc2)cc(O)c1SCc1cccc(OCc2ccccc2)c1` has a melting point of 140 to 141 °C.
In the case of `CC(=O)N(C)c1cc(Cl)ccc1C(=O)c1cnoc1C1CC1`, the melting point was 106 to 108 °C.
With `Cc1cc(C)c(Cc2ccc(C(C)C)cc2)c(OCC(=O)O)c1` the melting point was 104 to 105 °C.
`Clc1ccccc1COc1c(Cl)cc(OCC=C(Br)Br)cc1Cl` showed a melting point of 83.5 °C.
`CN(C)C(=O)c1cc(O)ccc1C=Cc1ccc(O)cc1` gave a melting point of 184 to 188 °C.
Work on `COc1ccc(C(=O)c2ccccc2F)c(Cl)c1Cl` yielded a melting point of 74 to 77 °C.
Work on `CCCCc1nc(-c2ccco2)n[nH]1` yielded a melting point of 73 to 74 °C.
Compound `Cc1cc(C)c(Oc2cccc(C#N)c2C#N)c(C)c1` has a melting point of 151 to 153 °C.
In the case of `O=C(O)C(=O)c1ccc(CCCOc2ccc3ccccc3c2)cc1`, the melting point was 151 to 154 °C.
Compound `CCCCCCCCOc1ccc(C(=O)c2ccccc2)c(O)c1Cc1cc(C)cc(-n2nc3ccccc3n2)c1O` has a melting point of 124 to 126 °C.
In the case of `COc1cc2c(cc1OC)C(=O)C(CN1CCC(O)(c3ccccc3)CC1)CC2` (stereo unspecified), the melting point was 175 to 177 °C.
